Settings in all cases: 7 days after inoculation, 405 nm
The test system of one test is Pyricularia oryzae. The format is cell-based.
The subject of the next test is Septoria tritici.
Another test relates to Botrytis cinerea. Briefly: Microtest: activity against the grey mold Botrytis cinerea in the microtiterplate test (Botrci). The format is cell-based.

Each structure is given as a SMILES string. Read-outs that look alike come from different tables or passages of the source.

Regarding `O=[N+]([O-])NC1=NCCN1Cc1ccc(Cl)nc1` [Imidacloprid, imidacloprid], the Observed efficacy with Pyricularia oryzae (63 ppm) is reported as 0; in the test with Septoria tritici (4 ppm), 2.
For `COC(=O)N(OC)c1ccccc1COc1ccn(-c2ccc(Cl)cc2)n1` [Pyraclostrobin], the Observed efficacy in the test on Pyricularia oryzae (0.001 ppm) came out at 21; with Septoria tritici (0.004 ppm), 49.
For the compound `C/C(=N\C#N)N(C)Cc1ccc(Cl)nc1` [acetamipyrid], the Observed efficacy in the test with Pyricularia oryzae (63 ppm) is 0.
Turning to `CN/C(=N\[N+](=O)[O-])NCc1cnc(Cl)s1` [clothianidin], the Observed efficacy in the test on Botrytis cinerea (16 ppm) was 0.
With `N#Cc1nn(-c2c(Cl)cc(C(F)(F)F)cc2Cl)c(N)c1[S+]([O-])C(F)(F)F` (stereo not drawn) [fipronil], the Observed efficacy in the test with Pyricularia oryzae (0.063 ppm) and with Botrytis cinerea (0.016 ppm) was 0 each time.
Take `COCC(=O)N(c1c(C)cccc1C)C(C)C(=O)OC` (stereo not drawn) [metalaxyl, Metalaxyl]: the Observed efficacy with Pyricularia oryzae (4 ppm) was found to be 0.
In the case of `CN1COCN(Cc2cnc(Cl)s2)/C1=N\[N+](=O)[O-]` [thiamethoxam], the Observed efficacy with Pyricularia oryzae (1 ppm) was 41; in the test on Botrytis cinerea (16 ppm) it was 0; in the test on Septoria tritici (1 ppm), 62.

The values above are taken from patent US20120021905A1, “Pesticidal Mixtures” (priority 2009, published 2012).
